Test results published in ChEMBL document CHEMBL1201862, “PubChem BioAssay data set” (2004).
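96-well plates; 48 h exposure; 5 concentrations. Endpoints by linear interpolation between flanking doses. Not reached: highest tested concentration assigned. Abbreviation: GI50, concentration required for 50% inhibition of growth.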 Activity calls are given as the source filed them. Rule as the data show it: active = GI50 up to about 1.1 µM and inactive = higher.

Tests used:
Experiment in all cases: NCI-60 cell line screen, 48 h
[1] = test system: MCF7
[2] = test system: EKVX
[3] = test system: HL-60
[4] = test system: RPMI-8226
[5] = test system: TK-10
[6] = test system: PC-3
[7] = test system: DU-145
[8] = test system: MDA-MB-231
[9] = test system: M14
[10] = test system: SR
[11] = test system: MOLT-4
[12] = test system: SW-620
[13] = test system: OVCAR-4
[14] = test system: SN12C
[15] = test system: Malme-3M
[16] = test system: NCI-H23
[17] = test system: HOP-92
[18] = test system: NCI-H460
[19] = test system: SF-295
[20] = test system: SNB-19

Q: Which results are given for `Cc1ccc([N+](=O)[O-])cc1S(=O)(=O)Nc1ccc(C2=NN(S(=O)(=O)c3cc([N+](=O)[O-])ccc3C)C(c3ccccc3O)C2)cc1` (stereo not given)?
A: GI50 [1]: > 100 µM (inactive); GI50 [2]: 57.7 µM (inactive); GI50 [3]: > 100 µM (inactive); GI50 [4]: 51.1 µM (inactive); GI50 [5]: 52.5 µM (inactive); GI50 [6]: > 100 µM (inactive); GI50 [7]: > 100 µM (inactive); GI50 [8]: 44.6 µM (inactive); GI50 [9]: > 100 µM (inactive); GI50 [10]: > 100 µM (inactive); GI50 [11]: 26.7 µM (inactive); GI50 [12]: > 100 µM (inactive); GI50 [13]: > 100 µM (inactive); GI50 [14]: > 100 µM (inactive); GI50 [15]: > 100 µM (inactive); GI50 [16]: 53.5 µM (inactive); GI50 [17]: 49.9 µM (inactive); GI50 [18]: > 100 µM (inactive); GI50 [19]: 34.4 µM (inactive); GI50 [20]: 42.4 µM (inactive)

Q: For `C[N+](C)(N)Cc1nc(-c2ccc(Cl)cc2)no1`, which GI50 [1] is on record?
A: Its GI50 is > 100 µM (inactive).

Q: What about the GI50 [2] of the same molecule?
A: The GI50 was 37.7 µM (inactive).

Q: What about the GI50 [3] of the same molecule?
A: Its GI50 is > 100 µM (inactive).

Q: And the GI50 [4]?
A: The GI50 was 52.8 µM (inactive).

Q: And the GI50 [5]?
A: The GI50 was > 100 µM (inactive).

Q: And the GI50 [6]?
A: The GI50 was > 100 µM (inactive).

Q: What about the GI50 [7] of the same molecule?
A: The GI50 was > 100 µM (inactive).

Q: And the GI50 [8]?
A: Its GI50 is > 100 µM (inactive).

Q: What about the GI50 [9] of the same molecule?
A: The GI50 was > 100 µM (inactive).

Q: And the GI50 [10]?
A: Its GI50 is 26.8 µM (inactive).

Q: What about the GI50 [11] of the same molecule?
A: Its GI50 is 20.8 µM (inactive).

Q: What about the GI50 [12] of the same molecule?
A: Its GI50 is > 100 µM (inactive).

Q: And the GI50 [13]?
A: Its GI50 is > 100 µM (inactive).

Q: And the GI50 [14]?
A: Its GI50 is > 100 µM (inactive).

Q: And the GI50 [15]?
A: The GI50 was > 100 µM (inactive).

Q: What about the GI50 [16] of the same molecule?
A: Its GI50 is > 100 µM (inactive).

Q: And the GI50 [17]?
A: The GI50 was > 100 µM (inactive).

Q: What about the GI50 [18] of the same molecule?
A: The GI50 was > 100 µM (inactive).

Q: What about the GI50 [19] of the same molecule?
A: The GI50 was > 100 µM (inactive).

Q: What about the GI50 [20] of the same molecule?
A: Its GI50 is > 100 µM (inactive).

Q: Which results are given for `CN(C)CCN1C(=O)c2cccc3cc([N+](=O)[O-])cc(c23)C1=O` [MITONAFIDE]?
A: GI50 [1]: 0.165 µM (active); GI50 [2]: 0.624 µM (active); GI50 [3]: 0.0676 µM (active); GI50 [4]: 0.443 µM (active); GI50 [5]: 2.13 µM (inactive); GI50 [6]: 0.931 µM (active); GI50 [7]: 0.286 µM (active); GI50 [8]: 1.31 µM (inactive); GI50 [9]: 0.479 µM (active); GI50 [10]: 0.129 µM (active); GI50 [11]: 0.0406 µM (active); GI50 [12]: 0.17 µM (active); GI50 [13]: 1.2 µM (inactive); GI50 [14]: 0.179 µM (active); GI50 [15]: 0.404 µM (active); GI50 [16]: 0.308 µM (active); GI50 [17]: 0.255 µM (active); GI50 [18]: 0.0803 µM (active); GI50 [19]: 0.209 µM (active); GI50 [20]: 0.25 µM (active)

Q: Which results are given for `O=C(COC(c1ccc(F)cc1)c1ccc(F)cc1)N1CCN(CCCc2ccccc2)CC1`?
A: GI50 [1]: 3.32 µM (inactive); GI50 [2]: 4.44 µM (inactive); GI50 [3]: 3.31 µM (inactive); GI50 [4]: 3.39 µM (inactive); GI50 [5]: 5.35 µM (inactive); GI50 [6]: 3.37 µM (inactive); GI50 [7]: 4.44 µM (inactive); GI50 [8]: 3.22 µM (inactive); GI50 [9]: 4.32 µM (inactive); GI50 [10]: 3.54 µM (inactive); GI50 [11]: 4.66 µM (inactive); GI50 [12]: 5.15 µM (inactive); GI50 [13]: 3.24 µM (inactive); GI50 [14]: 3.01 µM (inactive); GI50 [15]: 4.68 µM (inactive); GI50 [16]: 1.76 µM (inactive); GI50 [17]: 2.55 µM (inactive); GI50 [18]: 3.57 µM (inactive); GI50 [19]: 4.04 µM (inactive); GI50 [20]: 4.22 µM (inactive)

Q: For `COc1ccc2cc(/C=N\NC(=O)Nc3ccc([N+](=O)[O-])cc3)ccc2c1`, which GI50 [1] is on record?
A: Its GI50 is 14.4 µM (inactive).

Q: What about the GI50 [2] of the same molecule?
A: Its GI50 is 14 µM (inactive).

Q: What about the GI50 [3] of the same molecule?
A: Its GI50 is 11 µM (inactive).

Q: What about the GI50 [4] of the same molecule?
A: The GI50 was 13.8 µM (inactive).

Q: And the GI50 [5]?
A: The GI50 was 7.96 µM (inactive).

Q: What about the GI50 [6] of the same molecule?
A: The GI50 was 11.8 µM (inactive).

Q: And the GI50 [7]?
A: The GI50 was 7.41 µM (inactive).

Q: What about the GI50 [8] of the same molecule?
A: Its GI50 is 13.9 µM (inactive).

Q: And the GI50 [9]?
A: Its GI50 is 22.6 µM (inactive).

Q: What about the GI50 [10] of the same molecule?
A: The GI50 was > 10 µM (inactive).

Q: What about the GI50 [11] of the same molecule?
A: The GI50 was 16.5 µM (inactive).

Q: And the GI50 [12]?
A: Its GI50 is 17.5 µM (inactive).

Q: What about the GI50 [13] of the same molecule?
A: Its GI50 is 5.04 µM (inactive).

Q: And the GI50 [14]?
A: Its GI50 is 12.4 µM (inactive).

Q: And the GI50 [15]?
A: Its GI50 is 12.3 µM (inactive).

Q: And the GI50 [16]?
A: Its GI50 is 11.4 µM (inactive).

Q: And the GI50 [17]?
A: Its GI50 is 16 µM (inactive).

Q: And the GI50 [18]?
A: The GI50 was 12.4 µM (inactive).

Q: And the GI50 [19]?
A: Its GI50 is 13.8 µM (inactive).

Q: What about the GI50 [20] of the same molecule?
A: Its GI50 is 13.2 µM (inactive).
